Earlier results in patent US20250064782A1, “Methods of Treating Substance Use Disorders Using 5-MeO-DMT” (Journey Colab Corp., priority 2021, published 2025).

Key:
IL-6 = conditions: Uthaug et al. 2020
[1] = rodents; Shen et al. 2011, Ermakova et al. 2022

## COc1ccc2[nH]cc(CCN(C)C)c2c1 [5-MeO-DMT, 5-methoxy-N,N-dimethyltryptamine]
IL-6
  IL-6 levels post-administration: significantly decrease IL-6 levels
[1]
  pharmacokinetics of 5-MeO-DMT: Non-linear pharmacokinetics
